{
  "source": "patent US12152060B2",
  "about": "“Interleukin-2 variants and methods of uses thereof” (Cugene Inc, priority 2018, dated 2024)",
  "key": {"[1]": {"system": "delayed-type hypersensitivity (DTH) mouse model", "assay": "KLH-induced delayed-type hypersensitivity (DTH) mouse model, ear thickness", "type": "in vivo", "method": "The ability of Treg cells induced by IL-2 variants to suppress T cell antigen-driven inflammation in vivo was assessed in a model of delayed-type hypersensitivity (DTH). Female Balb/C mice (7-week old) were acclimated in house for 7 days and randomized into groups. Subcutaneous administration of vehicle (PBS), P-0511 at either 0.1 mg/kg or 0.3 mg/kg was initiated on day-2 and was given either once every 3 days (Q3D) for three injections or once every 5 days (Q5D) for two injections. Mice were then sensitized with a subcutaneous administration of 100 μg keyhole limpet hemocyanin (KLH) in 200 μl saline on day 0. For Q3D dosing, two more subcutaneous injections of PBS or P-0511 (0.1 or 0.3 mg/kg) were administered on days 1 and 4; for Q5D dosing, one additional s.c. injection of PBS, 0.1 or 0.3 mg/kg P-0511 was administered on day 3. Mice received an intradermal challenge of KLH (5 μg in 10 μl saline) in right ear on day 5. Right ear thickness was measured using a caliper on day 5 prior KLH challenge and daily from day 6 to day 8 corresponding to 24 h, 48h, and 72 h post KLH challenge. One group of mice also received 5 mg/kg daily i.p. treatment of dexamethasone from day 5 to day 8 as a positive control.\nKinetics of the DTH response using the change in ear thickness relative to baseline values (Δ ear thickness) at various times after KLH challenge was illustrated in FIG. 23.\nIn a separate study, dose-dependent response of P-0511 (0.1, 0.3 and 1 mg/kg, Q5D) on suppression of KLH-induced DTH was determined and compared with Benchmark-1 (0.3 mg/kg, Q5D)."}, "[2]": {"system": "regulatory T cells (CD4+CD25+FoxP3+ T cells), effector T cells and NK cells", "assay": "Treg versus effector T and NK cell proliferation and expansion in mice after a single subcutaneous injection", "type": "in vivo, mouse", "conditions": "0.3 mg/kg s.c. single dose, C57/BL6 mice; for Treg cell proliferation and expansion (Ki67 positive Treg, % Treg over CD4+ T cells or lymphocytes): days 3, 5, 7", "method": "IL-2 variant Fc fusion proteins were administered to mice and their ability to preferentially proliferate and expand regulatory T cells (CD4+CD25+FoxP3+ T cells) over effector T cells and NK cells were determined in vivo.\nFemale C57/BL6 mice (7-week old) were received from Charles River Laboratory and acclimated in house for at least 7 days before the study. Vehicle (PBS), 0.3 mg/kg of each test compounds, or IL-2 benchmark compounds were subcutaneously administered to mice on day 0. Peripheral blood samples were collected into heparin-treated tubes on days 3, 5 and 7 post-treatment. Each group contained 6 mice and baseline blood was collected 2 days prior to the treatment (day-2). After red blood cell lysis, total viable mononuclear blood cells were counted by trypan blue dead cell exclusion method and proceeded to intracellular staining for immune cell phenotype and Ki67 proliferation markers using flow cytometric analysis. Cells were stained separately with two panels of antibodies as listed: 1) anti-mouse Foxp3-FITC, Ki67-PE, anti-mouse CD25-APC and anti-mouse CD4-Percpcy5.5 (1:50 dilution) for CD4+T-regulatory cells (Treg); 2) anti-mouse CD3-FITC, Ki67-PE, anti-mouse CD335-APC and anti-mouse CD8-Percpcy5.5 (1:50 dilution) for CD8+T and NK cells."}, "[3]": {"system": "STAT5 phosphorylation in CD4+ Treg cells (CD4+/Foxp3+/CD25high)", "assay": "STAT5 phosphorylation in CD4+ Treg cells, human PBMC assay by FACS", "type": "cell-based", "conditions": "for window for selective activation of Treg cells over CD4+ Tconv cells (in words): pSTAT5, Treg versus Tconv; for pSTAT5 activity profile compared with benchmark molecules (in words): Treg and CD4+ Tconv cells", "from_the_text": "Single amino acid substitutions were introduced to IL-2 at positions corresponding to amino acids interacting with receptor subunit(s) β or γ or By. These substitutions were aimed to reduce IL-2 signaling capacity through the intermediate affinity IL-2Rβγ complex and confer signaling specificity from the high affinity IL-2Rαβγ. IL-2 variants containing single amino acid substitutions were examined for their ability to differentially stimulate STAT5 phosphorylation in CD4 positive Treg and Tconv cells. STAT5 is known to be involved in the downstream signaling cascade upon IL-2 binding to the transmembrane IL-2 receptors. The phosphorylation of STAT5 in defined lymphocyte subpopulations was measured using fresh human peripheral blood mononuclear cells (PBMC) and the forkhead transcription factor FOXP3 was used to identify the Treg population in FACS analysis.\nBriefly, human PBMC were isolated by Ficoll-Hypaque centrifugation from the buffy coat of a healthy donor. PBMC were starved in serum-free MACS buffer at 4° C. for 1 hour. 2×10^5 PBMC were then treated with serial dilutions of test compounds for 30 min at 37° C. Cells were fixed and permeabilized with Foxp3/Transcription Factor Staining Buffer Set (EBIO) by incubating with 1× Foxp3 fixation/permeabilization working solution for 30 minutes and washing with 1× permeabilization buffer. Cells were additionally fixed with Cytofix buffer and permeabilized with Perm Buffer III (BD Biosciences) and then washed. After blocking Fc receptors by adding human TruStain™ FcX (1:50 dilution), cells were stained with a mixture of anti-CD25-PE, anti-FOXP3-APC, anti-pSTAT5-FITC, and anti-CD4-PerCP-Cy5.5 antibodies at concentrations recommended by the manufacturer for 45 minutes at room temperature. Cells were collected by centrifugation, washed, resuspended in FACS buffer, and analyzed by flow cytometry. The flow cytometry data was gated into CD4+/Foxp3+/CD25^high and CD4+/Foxp3−/CD25^low groups for the Treg and CD4 conventional T cell subsets, respectively. Data are expressed as a percent of pStat5 positive cells in gated population."}, "[4]": {"system": "STAT5 phosphorylation in CD4+/Foxp3+/CD25+ Treg, CD4+/Foxp3-/CD25+ CD4 effector and CD4+/Foxp3-/CD25- CD4 naive T cell subsets", "assay": "STAT5 phosphorylation in three CD4+ T cell subsets, human PBMC", "type": "cell-based", "conditions": "FIG. 9", "method": "After human PBMC Cells were treated with serial dilutions of test compounds, fixed and permeabilized, washed, and stained with a mixture of anti-CD25-PE, anti-FOXP3-APC, anti-pSTAT5-FITC, and anti-CD4-PerCP-Cy5.5 antibodies, the flow cytometry analysis was gated into CD4+/Foxp3+/CD25+, CD4+/Foxp3−/CD25+, CD4+/Foxp3−/CD25− groups for the Treg, CD4 effector, and CD4 naive T cell subsets, respectively. Data are expressed as a percent of pSTAT5 positive cells in gated population and illustrated in FIG. 9."}, "Treg cells in blood": {"system": "Treg cells in blood", "assay": "Pharmacodynamics study in mice following repeated administration (Q3D)", "type": "in vivo, mouse", "conditions": "0.3 mg/kg s.c. Q3D x3; compared to P-0531 and Benchmark-1", "method": "Female Balb/C mice (7-week old) were acclimated in house for 5-7 days before the study. Vehicle (PBS), 0.3 mg/kg of P-0511, P-0512, P-0531, or Benchmark-1 compound were subcutaneously administered to mice (n=5/group) on days 0, 3, and 6. On days 3 and 9, three days after the first injection and multiple (3) injections, respectively, peripheral blood was collected. Based on earlier in vivo experiments, Treg cell activation, proliferation, and expansion were expected to peak on day 3, and thus three days post injection was selected for data collection and analysis. Changes in blood lymphocyte activation, proliferation, and expansion were measured by flow cytometry. P-0531 is the S125I equivalent of the wild type IL-2 fusion protein. The Benchmark-1 contains V91K mutation."}},
  "note": "“Also recorded” adds a separate entry of the source.",
  "data": [
    {"molecule": "C[C@@H]1C[C@H]2[C@@H]3CCC4=CC(=O)C=C[C@]4(C)[C@@]3(F)[C@@H](O)C[C@]2(C)[C@@]1(O)C(=O)CO", "note": "[dexamethasone, reference compound]", "values": [
      {"measurement": "inhibition of KLH-induced inflammatory response (ear swelling)", "setting": "[1]; 5 mg/kg daily i.p., 4 consecutive doses, 72 hours after KLH challenge", "value": "~85", "unit": "%"}
    ]},
    {"molecule": "Benchmark-1: benchmark Fc-IL-2 variant fusion protein containing V91K mutation; SEQ ID NO: 191 [reference compound]", "values": [
      {"measurement": "inhibition of ear inflammation (KLH-induced DTH), separate study", "setting": "[1]; 0.3 mg/kg, Q5D", "value": "mild inhibition of ear swelling"},
      {"measurement": "Ki67 stimulation on CD8 T cells and NK cells", "setting": "[2]", "value": "strong Ki67 stimulation"},
      {"measurement": "Treg cell proliferation and expansion (Ki67 positive Treg, % Treg over CD4+ T cells or lymphocytes)", "setting": "[2]", "value": "highest potency"}
    ]},
    {"molecule": "Benchmark-3: benchmark Fc-IL-2 variant fusion protein containing N88D; SEQ ID NO: 192 [reference compound]", "values": [
      {"measurement": "Ki67 stimulation on CD8 T cells and NK cells", "setting": "[2]", "value": "low effects"},
      {"measurement": "Treg cell proliferation and expansion (Ki67 positive Treg, % Treg over CD4+ T cells or lymphocytes)", "setting": "[2]", "value": "not efficacious"}
    ]},
    {"molecule": "P-0303: Fc fusion protein of IL-2 variant Q126E; SEQ ID NO: 88", "values": [
      {"measurement": "window for selective activation of Treg cells over CD4+ Tconv cells (in words)", "setting": "[3]", "value": "modestly improved selective window"}
    ]},
    {"molecule": "P-0363: Fc fusion protein of IL-2 variant D20T; SEQ ID NO: 72", "values": [
      {"measurement": "window for selective activation of Treg cells over CD4+ Tconv cells (in words)", "setting": "[3]", "value": "some or significant biased selective window"}
    ]},
    {"molecule": "P-0372: Fc fusion protein of IL-2 variant L19Y; SEQ ID NO: 79", "values": [
      {"measurement": "window for selective activation of Treg cells over CD4+ Tconv cells (in words)", "setting": "[3]", "value": "modestly improved selective window"}
    ]},
    {"molecule": "P-0373: Fc fusion protein of IL-2 variant L19N; SEQ ID NO: 80", "values": [
      {"measurement": "window for selective activation of Treg cells over CD4+ Tconv cells (in words)", "setting": "[3]", "value": "wide window for selective targeting of Treg subset; also recorded: some or significant biased selective window"}
    ]},
    {"molecule": "P-0424: Fc fusion protein of IL-2 variant L19H; SEQ ID NO: 148", "values": [
      {"measurement": "window for selective activation of Treg cells over CD4+ Tconv cells (in words)", "setting": "[3]", "value": "selective activation of Treg cells over CD4+ Tconv cells"}
    ]},
    {"molecule": "P-0425: Fc fusion protein of IL-2 variant L19D; SEQ ID NO: 149", "values": [
      {"measurement": "window for selective activation of Treg cells over CD4+ Tconv cells (in words)", "setting": "[3]", "value": "wide window for selective targeting of Treg subset"}
    ]},
    {"molecule": "P-0447: Fc fusion protein of IL-2 variant L19H/Q126E; SEQ ID NO: 168", "values": [
      {"measurement": "pSTAT5 activity profile compared with benchmark molecules (in words)", "setting": "[3]", "value": "on par with Benchmark-3"}
    ]},
    {"molecule": "P-0448: Fc fusion protein of IL-2 variant L19Q/Q126E; SEQ ID NO: 169", "values": [
      {"measurement": "pSTAT5 activity profile compared with benchmark molecules (in words)", "setting": "[3]", "value": "on par with Benchmark-3"}
    ]},
    {"molecule": "P-0449: Fc fusion protein of IL-2 variant L19S/Q126E; SEQ ID NO: 170", "values": [
      {"measurement": "pSTAT5 activity profile compared with benchmark molecules (in words)", "setting": "[3]", "value": "on par with Benchmark-3"}
    ]},
    {"molecule": "P-0491: Fc fusion protein of IL-2 variant L19H/S125I; SEQ ID NO: 185", "values": [
      {"measurement": "window for selective activation of Treg cells over CD4+ Tconv cells (in words)", "setting": "[3]", "value": "without altering Treg selectivity"}
    ]},
    {"molecule": "P-0512: Fc fusion protein of IL-2 variant L19H/S125I/Q126K; SEQ ID NO: 199", "values": [
      {"measurement": "pSTAT5 potency and selectivity in Treg, Teff and naive CD4 T cell subsets (in words)", "setting": "[4]", "value": "comparable activity profile to Benchmark-1"},
      {"measurement": "Treg cell counts, fold changes relative to PBS and Treg/Tconv ratio", "setting": "Treg cells in blood", "value": "superior capabilities to sustain Treg pool"},
      {"measurement": "Ki67 stimulation on CD8 T cells and NK cells", "setting": "[2]", "value": "mild Ki67 stimulation"},
      {"measurement": "expansion of CD4+ Tconv cells, CD8 T cells or NK cells", "setting": "[2]", "value": "No significant expansion"},
      {"measurement": "Treg cell proliferation and expansion (Ki67 positive Treg, % Treg over CD4+ T cells or lymphocytes)", "setting": "[2]", "value": "stronger in vivo efficacy"}
    ]},
    {"molecule": "P-0514: Fc fusion protein of IL-2 variant L19Q/S125I/Q126E; SEQ ID NO: 201", "values": [
      {"measurement": "expansion of CD4+ Tconv cells, CD8 T cells or NK cells", "setting": "[2]", "value": "No significant expansion"},
      {"measurement": "Treg cell proliferation and expansion (Ki67 positive Treg, % Treg over CD4+ T cells or lymphocytes)", "setting": "[2]", "value": "stronger in vivo efficacy"}
    ]},
    {"molecule": "P-0531: Fc fusion protein of IL-2 variant S125I, the S125I equivalent of wild type P-0250; SEQ ID NO: 162", "values": [
      {"measurement": "window for selective activation of Treg cells over CD4+ Tconv cells (in words)", "setting": "[3]", "value": "without altering Treg selectivity"}
    ]}
  ]
}
